These results are taken from patent US10570129B2 (Zoetis Services LLC, priority 2015, dated 2020).

In one assay the test system is Haemonchus contortus L3. Put plainly: microbe, parasite or virus in culture. The class given is cell-based. Particulars: Haemonchus contortus, 96 h, read-out: HcL3 Minimal Effective Concentration (MEC).
The test system of a further assay is D. immitis microfilariae. Put plainly: Dirofilaria immitis, microfilariae (DiMF) in vitro motility assay. Format: cell-based. Particulars: Dirofilaria immitis, 72 h, read-out: DiMF minimally effective dose (MEC).

Turning to `O=C(NCc1ccnc(Cl)c1)n1c2c(c3c(F)cc(C(F)(F)F)cc31)CN(C/C=C/c1ccc(F)cc1)CC2` [Example 325, (E)-N-((2-chloropyridin-4-yl)methyl)-9-fluoro-2-(3-(4-fluorophenyl)allyl)-7-(trifluoromethyl)-1,2,3,4-tetrahydro-5H-pyrido[4,3-b]indole-5-carboxamide], the minimal effective concentration is 3.3 µM in the assay on Haemonchus contortus L3 and 7.6 µM in the assay on D. immitis microfilariae.

For `O=C(NCc1ccnc(F)c1)n1c2c(c3c(C(F)(F)F)cc(F)cc31)CN(C/C=C/c1ccc(Cl)cc1)CC2` [Example 326, (E)-2-(3-(4-chlorophenyl)allyl)-7-fluoro-N-((2-fluoropyridin-4-yl)methyl)-9-(trifluoromethyl)-1,2,3,4-tetrahydro-5H-pyrido[4,3-b]indole-5-carboxamide], the minimal effective concentration worked out at 7.6 µM with Haemonchus contortus L3 and 10 µM in the assay on D. immitis microfilariae.

For `O=C(NCc1ccnc(F)c1)n1c2c(c3c(F)cc(C(F)(F)F)cc31)CN(C/C=C/c1ccc(Cl)cc1)CC2` [Example 327, (E)-2-(3-(4-chlorophenyl)allyl)-9-fluoro-N-((2-fluoropyridin-4-yl)methyl)-7-(trifluoromethyl)-1,2,3,4-tetrahydro-5H-pyrido[4,3-b]indole-5-carboxamide], the results for the minimal effective concentration in the assay on Haemonchus contortus L3 and with D. immitis microfilariae were > 100 µM and 10 µM, respectively.

Turning to `O=C(NCc1ccnc(Cl)c1)n1c2c(c3cc(Cl)c(C(F)(F)F)cc31)CN(C/C=C/c1ccc(Cl)cc1)CC2` [Example 328, (E)-8-chloro-2-(3-(4-chlorophenyl)allyl)-N-((2-chloropyridin-4-yl)methyl)-7-(trifluoromethyl)-1,2,3,4-tetrahydro-5H-pyrido[4,3-b]indole-5-carboxamide], the minimal effective concentration with Haemonchus contortus L3 came out at 0.3 µM; with D. immitis microfilariae, 33 µM.

On to `COc1cc2c3c(n(C(=O)NCc4ccnc(Cl)c4)c2cc1C(F)(F)F)CCN(C/C=C/c1ccc(Cl)cc1)C3` [Example 329, (E)-2-(3-(4-chlorophenyl)allyl)-N-((2-chloropyridin-4-yl)methyl)-8-methoxy-7-(trifluoromethyl)-1,2,3,4-tetrahydro-5H-pyrido[4,3-b]indole-5-carboxamide], for which the figures for the minimal effective concentration in the assay on Haemonchus contortus L3 and in the assay with D. immitis microfilariae were 0.3 µM and 1.8 µM, respectively.

Turning to `Cc1cc2c3c(n(C(=O)NCc4ccnc(Cl)c4)c2cc1C(F)(F)F)CCN(C/C=C/c1ccc(Cl)cc1)C3` [Example 330, (E)-2-(3-(4-chlorophenyl)allyl)-N-((2-chloropyridin-4-yl)methyl)-8-methyl-7-(trifluoromethyl)-1,2,3,4-tetrahydro-5H-pyrido[4,3-b]indole-5-carboxamide], the minimal effective concentration with Haemonchus contortus L3 is 0.5 µM; in the assay with D. immitis microfilariae, > 100 µM.

Consider `N#Cc1ccc(/C=C/CN2CCc3c(c4cc(C(F)(F)F)ccc4n3C(=O)NCc3ccnc(Cl)c3)C2)cc1` [Example 331, (E)-N-((2-chloropyridin-4-yl)methyl)-2-(3-(4-cyanophenyl)allyl)-8-(trifluoromethyl)-1,2,3,4-tetrahydro-5H-pyrido[4,3-b]indole-5-carboxamide], for which the minimal effective concentration was 0.7 µM with Haemonchus contortus L3 and 24 µM in the assay with D. immitis microfilariae.

On to `O=C(NCc1ccnc(Cl)c1)n1c2c(c3cc(C(F)(F)F)ccc31)CN(C/C=C/c1ccc(Cl)cc1)CC2` [Example 332, (E)-2-(3-(4-chlorophenyl)allyl)-N-((2-chloropyridin-4-yl)methyl)-8-(trifluoromethyl)-1,2,3,4-tetrahydro-5H-pyrido[4,3-b]indole-5-carboxamide], for which the minimal effective concentration in the assay on Haemonchus contortus L3 stood at 1 µM; in the assay on D. immitis microfilariae, 13.5 µM.

Take `O=C(NCc1ccnc(Cl)c1)n1c2c(c3cc(C(F)(F)F)ccc31)CN(C/C=C/c1ccc(Cl)c(Cl)c1)CC2` [Example 333, (E)-N-((2-chloropyridin-4-yl)methyl)-2-(3-(3,4-dichlorophenyl)allyl)-8-(trifluoromethyl)-1,2,3,4-tetrahydro-5H-pyrido[4,3-b]indole-5-carboxamide]: the values for the minimal effective concentration in the assay on Haemonchus contortus L3 and in the assay with D. immitis microfilariae were 1.8 µM and > 100 µM, respectively.

For `O=C(NCc1ccnc(Cl)c1)n1c2c(c3cc(C(F)(F)F)ccc31)CN(C/C=C/c1ccc(F)cc1)CC2` [Example 334, (E)-N-((2-chloropyridin-4-yl)methyl)-2-(3-(4-fluorophenyl)allyl)-8-(trifluoromethyl)-1,2,3,4-tetrahydro-5H-pyrido[4,3-b]indole-5-carboxamide], the minimal effective concentration with Haemonchus contortus L3 was found to be 1 µM; with D. immitis microfilariae, 10 µM.

For `O=C(NCc1ccnc(Cl)c1)n1c2c(c3cc(C(F)(F)F)ccc31)CN(C/C=C/c1ccc(OC(F)(F)F)cc1)CC2` [Example 335, (E)-N-((2-chloropyridin-4-yl)methyl)-2-(3-(4-(trifluoromethoxy)phenyl)allyl)-8-(trifluoromethyl)-1,2,3,4-tetrahydro-5H-pyrido[4,3-b]indole-5-carboxamide], the results for the minimal effective concentration in the assay with Haemonchus contortus L3 and in the assay with D. immitis microfilariae were 10 µM and 24 µM, respectively.

As to `O=C(NCc1ccnc(Cl)c1)n1c2c(c3ccc(OC(F)(F)F)cc31)CN(C/C=C/c1ccc(Cl)c(F)c1)CC2` [Example 336, (E)-2-(3-(4-chloro-3-fluorophenyl)allyl)-N-((2-chloropyridin-4-yl)methyl)-7-(trifluoromethoxy)-1,2,3,4-tetrahydro-5H-pyrido[4,3-b]indole-5-carboxamide], the minimal effective concentration was determined as 1 µM in the assay with Haemonchus contortus L3 and 33 µM in the assay on D. immitis microfilariae.

As for `O=C(NCc1ccnc(Cl)c1)n1c2c(c3ccc(OC(F)(F)F)cc31)CN(C/C=C/c1ccc(Cl)cc1Cl)CC2` [Example 337, (E)-N-((2-chloropyridin-4-yl)methyl)-2-(3-(2,4-dichlorophenyl)allyl)-7-(trifluoromethoxy)-1,2,3,4-tetrahydro-5H-pyrido[4,3-b]indole-5-carboxamide], the minimal effective concentration with Haemonchus contortus L3 turned out to be 1 µM; with D. immitis microfilariae it was 18.2 µM.

For the compound `O=C(NCc1ccnc(Cl)c1)n1c2c(c3ccc(OC(F)(F)F)cc31)CN(C/C=C/c1ccc(Br)cc1F)CC2` [Example 338, (E)-2-(3-(4-bromo-2-fluorophenyl)allyl)-N-((2-chloropyridin-4-yl)methyl)-7-(trifluoromethoxy)-1,2,3,4-tetrahydro-5H-pyrido[4,3-b]indole-5-carboxamide], the minimal effective concentration in the assay on Haemonchus contortus L3 is 0.3 µM; in the assay on D. immitis microfilariae, 10 µM.

Regarding `O=C(NCc1ccnc(Cl)c1)n1c2c(c3ccc(OC(F)(F)F)cc31)CN(C/C=C/c1c(F)cc(Cl)cc1F)CC2` [Example 339, (E)-2-(3-(4-chloro-2,6-difluorophenyl)allyl)-N-((2-chloropyridin-4-yl)-methyl)-7-(trifluoromethoxy)-1,2,3,4-tetrahydro-5H-pyrido[4,3-b]indole-5-carboxamide], the minimal effective concentration in the assay with Haemonchus contortus L3 and with D. immitis microfilariae was 0.5 µM in each case.

`O=C(NCc1ccnc(Cl)c1)n1c2c(c3ccc(OC(F)(F)F)cc31)CN(C/C=C/c1ccc(Cl)cc1F)CC2` [Example 340, (E)-2-(3-(4-chloro-2-fluorophenyl)allyl)-N-((2-chloropyridin-4-yl)methyl)-7-(trifluoromethoxy)-1,2,3,4-tetrahydro-5H-pyrido[4,3-b]indole-5-carboxamide]: the minimal effective concentration is 0.3 µM in the assay on Haemonchus contortus L3 and 5.7 µM in the assay on D. immitis microfilariae.

Take `O=C(NCc1ccnc(Cl)c1)n1c2c(c3ccc(OC(F)(F)F)cc31)CN(C/C=C/c1c(F)cc(F)cc1F)CC2` [Example 341, (E)-N-((2-chloropyridin-4-yl)methyl)-7-(trifluoromethoxy)-2-(3-(2,4,6-trifluorophenyl)allyl)-1,2,3,4-tetrahydro-5H-pyrido[4,3-b]indole-5-carboxamide]: the minimal effective concentration in the assay with Haemonchus contortus L3 is 3.3 µM; with D. immitis microfilariae it was 5.7 µM.

As for `O=C(NCc1ccnc(Cl)c1)n1c2c(c3ccc(OC(F)(F)F)cc31)CN(C/C=C/c1ccc(C(F)(F)F)cn1)CC2` [Example 342, (E)-N-((2-chloropyridin-4-yl)methyl)-7-(trifluoromethoxy)-2-(3-(5-(trifluoromethyl)pyridin-2-yl)allyl)-1,2,3,4-tetrahydro-5H-pyrido[4,3-b]indole-5-carboxamide], the minimal effective concentration in the assay on Haemonchus contortus L3 is 1.8 µM; in the assay with D. immitis microfilariae, 10 µM.

Consider `O=C(NCc1ccnc(Cl)c1)n1c2c(c3c(OC(F)(F)F)cccc31)CN(C/C=C/c1ccc(C(F)(F)F)cn1)CC2` [Example 343, (E)-N-((2-chloropyridin-4-yl)methyl)-9-(trifluoromethoxy)-2-(3-(5-(trifluoromethyl)pyridin-2-yl)allyl)-1,2,3,4-tetrahydro-5H-pyrido[4,3-b]indole-5-carboxamide], for which the minimal effective concentration in the assay with Haemonchus contortus L3 worked out at 33 µM; with D. immitis microfilariae, 3.3 µM.

Turning to `N#Cc1ccc(/C=C/CN2CCc3c(c4ccc(OC(F)(F)F)cc4n3C(=O)NCc3ccnc(Cl)c3)C2)cc1F` [Example 345, (E)-N-((2-chloropyridin-4-yl)methyl)-2-(3-(4-cyano-3-fluorophenyl)allyl)-7-(trifluoromethoxy)-1,2,3,4-tetrahydro-5H-pyrido[4,3-b]indole-5-carboxamide], the minimal effective concentration in the assay with Haemonchus contortus L3 turned out to be 0.5 µM; in the assay with D. immitis microfilariae it was 18.2 µM.

Consider `O=C(NCc1ccnc(Cl)c1)n1c2c(c3ccc(OC(F)(F)F)cc31)CN(C/C=C/c1ccc(F)cc1Cl)CC2` [Example 346, (E)-2-(3-(2-chloro-4-fluorophenyl)allyl)-N-((2-chloropyridin-4-yl)methyl)-7-(trifluoromethoxy)-1,2,3,4-tetrahydro-5H-pyrido[4,3-b]indole-5-carboxamide], for which the figures for the minimal effective concentration in the assay with Haemonchus contortus L3 and in the assay with D. immitis microfilariae were 0.5 µM and 1.8 µM, respectively.

Take `O=C(NCc1ccnc(Cl)c1)n1c2c(c3ccc(OC(F)(F)F)cc31)CN(C/C=C/c1ccc(F)cc1F)CC2` [Example 347, (E)-N-((2-chloropyridin-4-yl)methyl)-2-(3-(2,4-difluorophenyl)allyl)-7-(trifluoromethoxy)-1,2,3,4-tetrahydro-5H-pyrido[4,3-b]indole-5-carboxamide]: the minimal effective concentration with Haemonchus contortus L3 and in the assay with D. immitis microfilariae was 2.4 µM in each case.
